Laboratory results from US10801035B2, “Plants having increased tolerance to herbicides” (BASF SE, priority 2011, dated 2020).

What was measured:
[1] = target: T1, Arabidopsis HPPD variant M335H (Arabidopsis thaliana, UniProt P93836, M335H); assay: HPPD activity assay, Arabidopsis HPPD mutant M335H; type: biochemical; conditions: normalized on wildtype
T1 construct: His6 (N); made in house; host or cells: E. coli BL21 (DE3)
Procedure: (§1) HPPD produces homogentisic acid and CO2 from 4-hydroxyphenylpyruvate (4-HPP) and O2. The activity assay for HPPD is based on the analysis of homogentisic acid by reversed phase HPLC.
(§2) The assay mixture can contain 150 mM potassium phosphate buffer pH 7.0, 50 mM L-ascorbic acid, 1 μM FeSO4 and 7 μg of purified enzyme in a total volume of 1 ml. Inhibitors are dissolved in DMSO (dimethylsulfoxide) to a concentration of 20 mM or 0.5 mM, respectively. From this stock solution serial five-fold dilutions are prepared in DMSO, which are used in the assay. The respective inhibitor solution accounts for 1% of the assay volume. Thus, final inhibitor concentrations range from 200 μM to 2.5 nM or from 5 μM to 63 pM, respectively. After a preincubation of 30 min the reaction is started by adding 4-HPP to a final concentration of 0.1 mM. […]
(§3) Inhibitors are dissolved in DMSO (dimethylsulfoxide) to a concentration of 0.5 mM. […] IC50 values are calculated using non-linear regression.
Purified, mutant HPPD enzymes are obtained by the methods described above. […] Apparent michaelis constants (Km) and maximal reaction velocities (Vmax) are calculated by non-linear regression with the software GraphPad Prism 5 (GraphPad Software, La Jolla, USA) using a substrate inhibition model. […] Weighted means (by standard error) of Km and […] values are calculated from at least three independent experiments. […]

Synechococcus HPPD = assay: HPPD activity assay, Synechococcus HPPD; type: biochemical; conditions: normalized on Hordeum HPPD
Procedure: as §1
as §2, with “volume.” for “volume. Thus, final inhibitor concentrations range from 200 μM to 2.5 nM or from 5 μM to 63 pM, respectively. After a preincubation of 30 min the reaction is started by adding 4-HPP to a final concentration of 0.1 mM.”
Activities are normalized by setting the uninhibited enzyme activity to 100%. […] values are calculated using non-linear regression. […]
as §3
Using methods which are described in the above examples or well known in the art, purified, recombinant wildtype HPPD enzymes are characterized with respect to their kinetic properties and sensitivity towards HPPD inhibiting herbicides. Apparent michaelis constants (Km) and maximal reaction velocities (Vmax) are calculated by non-linear regression with the software GraphPad Prism 5 (GraphPad Software, La Jolla, USA) using a substrate inhibition model. […]

T1 sequence (P93836 whole entry M335H): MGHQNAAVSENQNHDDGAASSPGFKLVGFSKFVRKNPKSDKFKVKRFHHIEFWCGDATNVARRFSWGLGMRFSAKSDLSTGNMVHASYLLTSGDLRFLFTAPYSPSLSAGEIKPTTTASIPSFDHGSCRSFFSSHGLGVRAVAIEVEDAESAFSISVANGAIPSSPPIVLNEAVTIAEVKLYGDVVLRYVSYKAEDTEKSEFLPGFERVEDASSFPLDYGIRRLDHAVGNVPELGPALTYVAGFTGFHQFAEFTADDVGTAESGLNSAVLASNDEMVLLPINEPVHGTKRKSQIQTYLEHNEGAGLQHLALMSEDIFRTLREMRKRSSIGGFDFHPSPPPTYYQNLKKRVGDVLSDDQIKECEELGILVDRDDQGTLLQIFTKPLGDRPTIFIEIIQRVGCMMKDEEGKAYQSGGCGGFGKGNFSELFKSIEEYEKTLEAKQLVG

SMILES | Normalized tolerance index (TI) [1] | Normalized tolerance index (TI) (Synechococcus HPPD)
O=S1(=O)C(c2c(Cl)cc(Cl)nc2Cl)=C(O)c2ncccc2N1CC(F)F [Inhibitor 2, 1-(2,2-difluoroethyl)-2,2-dioxo-3-(2,4,6-trichloro-3-pyridyl)pyrido[3,2-c]thiazin-4-ol] | 0.2 | –
CC1=NOC(c2c(Cl)ccc(C3=C(O)c4ncccc4N(CC(F)F)S3(=O)=O)c2Cl)C1 (centres unmarked) [Inhibitor 1, 3-[2,4-dichloro-3-(3-methyl-4,5-dihydroisoxazol-5-yl)phenyl]-1-(2,2-difluoroethyl)-2,2-dioxo-pyrido[3,2-c]thiazin-4-ol] | – | 2.2
